# US20050142634A1, “Novel modulator of non-genomic activity of nuclear receptors (mnar) and uses thereof” (Wyeth, priority 2001, published 2005)
# Legend:
# ERα [1] = experiment: MNAR effect on ER-mediated transcription, 2xERE-tk-luciferase reporter in HepG2 cells; format: cell-based; conditions: for effect of Src inhibitor on MNAR stimulation of E2 induced ERα activity / effect of kinase inhibitor on MNAR stimulation of ER activity / MNAR stimulation of ER activity with ligand: HepG2, ERα and MNAR; for effect of Src inhibitor on MNAR stimulation of E2 induced ERα activity: treated for 24 hr with 17β-estradiol and inhibitor; for effect of kinase inhibitor on MNAR stimulation of ER activity: 10 nM E2 plus 1 μM inhibitor; for MNAR stimulation of ER activity with ligand: ligand at 10 nM
# Description: Transient Transfection Analysis: HepG2 and COS-7 cells were routinely maintained in DMEM supplemented with 10% FBS. Either 50,000 cells per well of HepG2 or 30,000 per well of COS-7 were seeded in 96 well plates in DMEM without phenol red supplemented with 10% charcoal stripped serum. 100 ng of 2×ERE-tk-Luc reporter, 10 ng of pCMV-O-gal internal control, either 1 ng of pcDNA3.1 ERα or 5 ng of pcDNA3.1 ERβ expression vector with or without increasing amount of pcDNA3.1 MNAR or pcDNA3.1 SRC3 expression plasmids were transfected using 0.5 ul of lipofectamine 2000 (Life Technologies, Rockville, Md.) according to protocol. Cells were stimulated either with 10^−8M 17-b-estradiol, tamoxifen, or ICI for 24 hr before being processed for luciferase and β-Galactosidase activity.
# (§1) A—HepG2 cells were transfected with expression plasmids for ERα, MNAR and/or SRC3. […] B—HepG2 cells were transfected with expression vectors for ERαand MNAR. […] (SEQ ID NO: 11) from Sequitur, Inc. (Natick, Mass.) or reverse control (C) oligomers complexed with 1 μg/ml of Lipofectamine 2000 in white media.
# To evaluate if MNAR overexpression affects transcriptional activity of ER, HepG2 cells were transiently cotransfected with plasmids for expression of ERα and MNAR.
# ER = experiment: MNAR structural-functional analysis, ER-stimulated transcription in HepG2 cells; format: cell-based; conditions: MNAR deletion mutants transfected into HepG2 cells
# Description: To delineate the regions of MNAR that are responsible for interaction with estrogen receptor and c-Src tyrosine kinase, we performed functional evaluation of MNAR deletion mutants (FIG. 12). A series of C-terminal truncations of MNAR was generated using specially designed oligonucleotides, by amplifying appropriate fragments and cloning them into appropriate expression vectors. These mutants were tested for their abilities to enhance ER-stimulated transcription when transfected into HepG2 cells.
# At the C-terminus, MNAR contains a region rich in both proline and glutamic acid. To delineate the regions on MNAR responsible for interaction with estrogen receptors and c-src tyrosine kinase, a functional evaluation of MNAR deletion mutants was performed (FIG. 12). A series of C-terminal truncations of MNAR was generated using specially designed oligonucleotides, by amplifying appropriate fragments and cloning them into appropriate expression vectors. These mutants were tested for their abilities to enhance ER-stimulated transcription when transfected into HepG2 cells.
# cSrc [2] = conditions: ERα with MNAR and cSrc, 1 μM E2, compared to unliganded ERα
# From the text: ER-MNAR-cSrc Interaction Analysis. […] Formed complexes were isolate by pulled-down with anti-cSrc or anti-Lck antibodies and protein A agarose, boiled in 2×SDS buffer and resolved on an SDS-PAGE gel. Gel was dried and subjected to autoradiography.
# To address this question, we have used in vitro transcribed/translated estrogen receptors ERα, ERβ and MNAR. […] Formed complexes were pulled-down with anti-cSrc or anti-Lck antibodies and protein A sepharose and then resolved on an SDS gel.
# MNAR = MNAR expression in MCF-7 cells (TaqMan, Western blotting); format: cell-based, human
# Description: as §1, with “MNAR. […] C—MCF-7 cells were transfected with 100 nM antisense (AS)” for “MNAR.”, “media. […] MNAR antiserum was generated against […] peptide encoding amino acids 509-520 ([…]) (SEQ ID NO: 31) of the MNAR.” for “media.”
# (§2) It has been previously reported that activation of Src by estradiol triggers Ras/Erks kinase pathway. We expected that MNAR induced Src activation may lead to activation of Erk kinases 1 and 2. […] MNAR antisense oligonucleotide (SEQ ID NO:11) was developed at Sequitur Inc. (Natick, Mass.).
# (§3) We next used an antisense approach to assess MNAR's role in estrogen regulation of gene transcription. […] MCF-7 cells were transfected with 100 nM antisense or reverse control oligomers. […] TaqMan analysis was performed using a primer/probe set designed to target MNAR, pS2 and Cathepsin D—two genes known to be regulated by estrogens in MCF-7 cells. FIG. 9C presents the levels of MNAR, pS2 and Cathepsin D mRNA expression, normalized to GAPDH mRNA.
# Erk 1 and 2 = experiment: E2 induced Erk kinase 1 and 2 activation in MCF7 cells (Western blotting); format: cell-based, human; conditions: for level of total Erk 1 and 2: Erk1/2 antibodies; for effect on E2 induced Erk 1 and 2 activation: MCF7 cells overexpressing MNAR or treated with 100 nM antisense, 10 nM E2 5 minutes
# From the text: as §2
# cSrc [3] = experiment: Kinase reaction on immunoprecipitates from MCF-7 cells ([32P]γATP); format: cell-based, human; conditions: material coprecipitated with anti-Src and anti-ER antibodies from MCF-7 cells, E2 10 nM 5 minutes
# Description: FLAG-MNAR (panel A), cSrc (panel B), or ERα (panels C, D and E) were immunoprecipitated from the cell extracts using corresponding antibodies. Immunoprecipitates were incubated with [32P]γATP for 30 minutes at 30° C. (panels A-C), or with [32P]-γATP and enolase (panel D). Kinase reaction was stopped by boiling in 2×SDS buffer. Phosphorylated material was loaded on SDS gel, which was then dried and subjected to autoradiography.
# We evaluated whether MNAR and ER interacted and activated Src kinase in MCF-7 cells. […] Flag-MNAR (FIG. 10, panel A), ERα (FIG. 10, panel C and D), and csrc (FIG. 10, panel B) were immunoprecipitated from the cell extracts using their corresponding antibodies. […] Immunoprecipitates were incubated with [32P]γATP at 30° C. for 30 minutes. Reaction was stopped by boiling in 2×SDS buffer and resolved on a SDS PMG.
# cSrc [4] = experiment: Analysis of cSrc enzymatic activity with acidified enolase as substrate; format: biochemical; conditions: acid denatured enolase as substrate
# Description: Analysis of cSrc Enzymatic Activity. […] Before reaction proteins were incubated for 1 hr at 4° C. Phosporylation reaction was started by addition of [32P]-γATP and continued at 30° C. for 10 min. Reaction was stopped by addition of 2×SDS buffer. Phosphorylated proteins were separated by SDS-PAGE and the dried gel was subjected to autoradiography.
# ERα [5] = test system: ERα
# Description: MNAR-Nuclear receptors interaction analysis was performed. […] Formed complexes were isolated using anti-FLAG sepharose beads, boiled in 2×SDS buffer and loaded on SDS gel.
# With full-length flag-MNAR, we further evaluated whether MNAR interaction with estrogen receptors is affected by ER ligands. […] Formed complexes were isolated using anti-FLAG sepharose beads.
# Cathepsin D = experiment: ER-mediated gene expression in MCF-7 cells (TaqMan); format: cell-based, human; conditions: 100 nM antisense
# Description: as §1, with “MNAR. […] C—MCF-7 cells were transfected with 100 nM antisense (AS)” for “MNAR.”, “media. […] MNAR antiserum was generated against […] peptide encoding amino acids 509-520 ([…]) (SEQ ID NO: 31) of the MNAR.” for “media.”
# as §3
# pS2 = experiment: as above; format: cell-based, human; conditions: 100 nM antisense
# Description: as §1, with “MNAR. […] C—MCF-7 cells were transfected with 100 nM antisense (AS)” for “MNAR.”, “media. […] MNAR antiserum was generated against […] peptide encoding amino acids 509-520 ([…]) (SEQ ID NO: 31) of the MNAR.” for “media.”
# as §3
compound,measurement,setting,value
"O=c1c(-c2ccc(O)cc2)coc2cc(O)cc(O)c12 [genesteine, genistein]",effect of Src inhibitor on MNAR stimulation of E2 induced ERα activity,ERα [1],inhibited MNAR stimulation
CC(C)(C)n1nc(-c2ccc(Cl)cc2)c2c(N)ncnc21 [PP2],effect of kinase inhibitor on MNAR stimulation of ER activity,ERα [1],abrogate MNAR stimulation of ER activity
same,effect of Src inhibitor on MNAR stimulation of E2 induced ERα activity,ERα [1],inhibited MNAR stimulation
mutant 3: MNAR mutant containing aa 1-278,ability to enhance ER-stimulated transcription,ER,still able to augment ER transcriptional activity
"C[C@]12CC[C@@H]3c4ccc(O)cc4CC[C@H]3[C@@H]1CC[C@@H]2O [E2, 17β-estradiol, reference compound]",Src-ER-MNAR complex formation,cSrc [2],significant stimulation
same,MNAR mRNA expression,"MNAR; MCF-7 cells, 10 nM E2 24 hours, normalized to GAPDH mRNA",substantially stimulated
same,Erk 1 and 2 phosphorylation,"Erk 1 and 2; MCF7 cells, 10 nM E2 for 5 minutes",Strong E2 induced stimulation
same,level of total Erk 1 and 2,Erk 1 and 2; MCF7 cells,Neither treatment with MNAR antisense oligonucleotides nor short treatment with E2 affected
same,phosphorylation of endogenous protein of approximately 34 kDa,cSrc [3],stimulated
"MNAR: novel ER interacting protein, 1130 amino acids, cloned from MCF-7 cells",cSrc enzymatic activity,cSrc [4],strongly stimulates
same,ERα transcriptional activity on overexpression,"ERα [1]; HepG2 cells transfected with expression plasmid, 2xERE-tk-reporter",stimulation of ERα transcriptional activity
same,effect on E2 induced Erk 1 and 2 activation,Erk 1 and 2,significantly enhanced
same,phosphorylation of endogenous protein of approximately 34 kDa,cSrc [3],dramatically augmented
COc1cccc(-c2cc(=O)c3ccccc3o2)c1N [PD98059],effect of kinase inhibitor on MNAR stimulation of ER activity,ERα [1],abrogate MNAR stimulation of ER activity
"C[C@]12CC[C@@H]3c4ccc(O)cc4C[C@@H](CCCCCCCCC[S+]([O-])CCCC(F)(F)C(F)(F)F)[C@H]3[C@@H]1CC[C@@H]2O (stereo partly drawn) [ICI 182,780]",MNAR stimulation of ER activity with ligand,ERα [1],do not support MNAR stimulation of ER activity
CC/C(=C(\c1ccc(O)cc1)c1ccc(OCCN(C)C)cc1)c1ccccc1 [4(OH) tamoxifen],ERα interaction with MNAR,ERα [5],inhibited
same,MNAR stimulation of ER activity with ligand,ERα [1],do not support MNAR stimulation of ER activity
mutant 2: MNAR mutant containing aa 1-469,ability to enhance ER-stimulated transcription,ER,still able to augment ER transcriptional activity
"MNAR antisense oligonucleotides: antisense (AS) CATGGAGATGTCCCGGAACAGTGCA (SEQ ID NO: 11) from Sequitur, Inc., targets MNAR (listed as DNA, chemistry not given here; listed as Homo sapiens)",basal level of Cathepsin D expression,Cathepsin D,did not significantly affect
same,E2-stimulated Cathepsin D expression,Cathepsin D; 10 nM E2,dramatic reduction
same,basal level of pS2 expression,pS2,did not significantly affect
same,E2-stimulated pS2 expression,pS2; 10 nM E2,dramatic reduction
same,MNAR level,"MNAR; MCF7 cells, 100 nM antisense, Western blotting with MNAR antibodies",attenuated
same,MNAR expression,"MNAR; MCF-7 cells, 100 nM antisense, TaqMan and Western Blotting",significantly inhibited
same,effect on E2 induced Erk 1 and 2 activation,Erk 1 and 2,attenuated
same,level of total Erk 1 and 2,Erk 1 and 2; MCF7 cells,Neither treatment with MNAR antisense oligonucleotides nor short treatment with E2 affected
mutant 4: MNAR mutant containing aa 1-189,ability to enhance ER-stimulated transcription,ER,still able to augment ER transcriptional activity
